According to patent US11389415B2, “Methods of regulating cannabinoid receptor activity-related disorders and diseases” (The United States of America as represented by the …, priority 2012, dated 2022):

Test system: rat C6 glioma xenografts
Assay: Gene expression profiling (microarray, GO term and PAGE gene set analysis) in rat C6 glioma xenografts
Assay type: in vivo, mouse
Settings: MNF_Control
Experimental: Analysis of gene expression in rat C6 glioma xenografts. Total RNA was isolated from rat C6 glioma xenografts harvested from vehicle and MNF-treated mice (n=3 per group, cohort 1). This analysis was repeated in a second cohort of animals (n=3 per group, cohort 2). Total cellular RNA was extracted using an RNeasy plus mini kit (QIAGEN, Valencia, Calif.), and its quality was assessed using an Agilent BioAnalyzer using RNA 6000 Nano Chips (Agilent Technologies, Santa Clara, Calif.). Transcriptional profiling was determined using Illumina Sentrix BeadChips (Illumina, San Diego, Calif.). Total RNA was used to generate biotin-labeled cRNA with the Illumina TotalPrep RNA Amplification Kit. In short, 0.5 ug of total RNA was first converted into single-stranded cDNA with reverse transcriptase using an oligo-dT primer containing the T7 RNA polymerase promoter site and then copied to produce double-stranded cDNA molecules. The double-stranded cDNA was cleaned and concentrated with the supplied columns and used in an overnight in-vitro transcription reaction where single-stranded RNA (cRNA) was generated incorporating biotin-16-UTP. A total of 0.75 μg of biotin-labeled cRNA was hybridized at 58° C. for 16 hours to Illumina's Sentrix Rat Ref-12 Expression BeadChips. Each BeadChip has ˜22,000 well-annotated RefSeq transcripts with approximately 30-fold redundancy. The arrays were washed, blocked and the labeled cRNA was detected by staining with streptavidin-Cy3. Hybridized arrays were scanned using an Illumina BeadStation 500× Genetic Analysis Systems scanner and the image data extracted using Illumina's GenomeStudio software, version 1.6.1. For statistical analysis, the expression data were filtered to include only probes with a consistent signal on each chip and an Illumina detecton p value <0.02.
Correlation analysis, sample clustering analysis and principal component analysis was performed to identify/exclude any possible outliers. The resulting dataset was next analyzed with DIANE 6.0, a spreadsheet-based microarray analysis program using value statistics for Z-Score reliability below 0.05; and mean background-corrected signal intensity greater than zero.
Gene set enrichment analysis use gene expression values or gene expression change values for all of the genes in the microarray. Parametric analysis of gene set enrichment (PAGE) was used using the WEB-PAGE GSA tool for gene set analysis. Gene Sets include the MSIG database, Gene Ontology Database, GAD human disease and mouse phenotype gene sets were used to explore functional level changes. Gene-gene interaction was also analyzed using the INGENUITY® Pathway Analysis (IPA) system (INGENUITY® Systems).

SMILES: COc1ccc(C[C@@H](C)NC[C@H](O)c2cc(O)cc(O)c2)c2ccccc12 [(R,R′)-MNF, (R,R′)-4′-methoxy-1-naphthylfenoterol]
- Z score, ADIP_DIFF_CLUSTERS (cohort 1): −4.6054
- Z score, ATRBRCAPATHWAY (cohort 1): −1.8815
- Z score, BRCA_PROGNOSIS_NEG (cohort 1): −3.2974
- Z score, BRENTANI_REPAIR (cohort 1): −3.8568
- Z score, CANCER_UNDIFFERENTIATED_META_UP (cohort 1): −4.8288
- Z score, CELL_CYCLE (cohort 1): −5.0187
- Z score, CELL_CYCLE_KEGG (cohort 1): −4.1925
- Z score, CMV_IE86_UP (cohort 1): −6.1497
- Z score, CROONQUEST_IL6_STARVE_UP (cohort 1): −6.5055
- Z score, CROONQUIST_IL6_RAS_DN (cohort 1): −6.7147
- Z score, DAC_FIBRO_DN (cohort 1): −4.4476
- Z score, DNA_REPLICATION_REACTOME (cohort 1): −3.8683
- Z score, DOX_RESIST_GASTRIC_UP (cohort 1): −5.8557
- Z score, E2F1_DNA_UP (cohort 1): −3.6781
- Z score, GAY_YY1_DN (cohort 1): −7.6370
- Z score, GOLDRATH_HP (cohort 1): −2.4433
- Z score, HDACI_COLON_BUT12 HRS_UP (cohort 1): 5.3212
- Z score, HDACI_COLON_BUT16HRS_UP (cohort 1): 3.6723
- Z score, HDACI_COLON_BUT24HRS_UP (cohort 1): 3.0864
- Z score, HDACI_COLON_TSABUT_UP (cohort 1): 4.1465
- Z score, HIPPOCAMPUS_DEVELOPMENT_POSTNATAL (cohort 1): 3.6731
- Z score, HOFFMANN_BIVSBII_BI_TABLE2 (cohort 1): −5.1273
- Z score, HYPOPHYSECTOMY_RAT_DN (cohort 1): 3.6187
- Z score, IDX_TSA_UP_CLUSTER3 (cohort 1): −6.1057
- Z score, IRITANI_ADPROX_LYMPH (cohort 1): −5.1468
- Z score, KAMMINGA_EZH2_TARGETS (cohort 1): −5.3211
- Z score, KENNY_WNT_UP (cohort 1): −4.0135
- Z score, LAMB_CYCLIN_D3_GLOCUS (cohort 1): −2.8637
- Z score, LEE_TCELLS2_UP (cohort 1): −4.1051
- Z score, LEE_TCELLS3_UP (cohort 1): −7.2409
- Z score, LI_FETAL_VS_WT_KIDNEY_DN (cohort 1): −5.4447
- Z score, MANALO_HYPOXIA_DN (cohort 1): −3.2723
- Z score, MIDDLEAGE_DN (cohort 1): −3.6696
- Z score, MOREAUX_TACI_HI_IN_PPC_UP (cohort 1): −2.9881
- Z score, MOREAUX_TACI_HI_VS_LOW_DN (cohort 1): −4.3721
- Z score, OLDAGE_DN (cohort 1): −4.5391
- Z score, P21_P53_ANY_DN (cohort 1): −5.0275
- Z score, PEART_HISTONE_DN (cohort 1): −2.5055
- Z score, PODI_KO_UP (cohort 1): −3.9363
- Z score, PRMT5_KD_UP (cohort 1): −9.3903
- Z score, REN_E2F1_TARGETS (cohort 1): −2.9150
- Z score, SASAKI_ATL_UP (cohort 1): −5.0963
- Z score, SASAKI_TCELL_LYMPHOMA_VS_CD4_UP (cohort 1): −5.0963
- Z score, SERUM_FIBROBLAST_CELLCYCLE (cohort 1): −7.2985
- Z score, SHEPARD_BMYB_MORPHOLINO_DN (cohort 1): −4.3350
- Z score, SHEPARD_CRASH_AND_BURN_MUT_VS_WT_DN (cohort 1): −3.9994
- Z score, SHEPARD_GENES_COMMON_BW_CB_MO (cohort 1): −4.0300
- Z score, STEMCELL_NEURAL_UP (cohort 1): −6.0983
- Z score, TARTE_MATURE_PC (cohort 1): 3.6636
- Z score, TARTE_PLASMA_BLASTIC (cohort 1): −4.8905
- Z score, VERNELL_PRB_CLSTR1 (cohort 1): −3.4691
- Z score, YU_CMYC_UP (cohort 1): −4.4689
- Z score, ZHAN_MM_CD138_PR_VS_REST (cohort 1): −6.1404
- Z score, ADIP_DIFF_CLUSTERS (cohort 2): −6.8850
- Z score, ATRBRCAPATHWAY (cohort 2): −2.9977
- Z score, BRCA_PROGNOSIS_NEG (cohort 2): −5.4682
- Z score, BRENTANI_REPAIR (cohort 2): −2.9453
- Z score, CANCER_UNDIFFERENTIATED_META_UP (cohort 2): −6.2847
- Z score, CELL_CYCLE (cohort 2): −7.4222
- Z score, CELL_CYCLE_KEGG (cohort 2): −7.0955
- Z score, CMV_IE86_UP (cohort 2): −6.5954
- Z score, CROONQUEST_IL6_STARVE_UP (cohort 2): −9.0059
- Z score, CROONQUIST_IL6_RAS_DN (cohort 2): −7.7040
- Z score, DAC_FIBRO_DN (cohort 2): −4.9523
- Z score, DNA_REPLICATION_REACTOME (cohort 2): −6.5700
- Z score, DOX_RESIST_GASTRIC_UP (cohort 2): −8.6145
- Z score, E2F1_DNA_UP (cohort 2): −4.4885
- Z score, GAY_YY1_DN (cohort 2): −4.7456
- Z score, GOLDRATH_HP (cohort 2): −2.2875
- Z score, HDACI_COLON_BUT12 HRS_UP (cohort 2): 3.6676
- Z score, HDACI_COLON_BUT16HRS_UP (cohort 2): 3.4287
- Z score, HDACI_COLON_BUT24HRS_UP (cohort 2): 3.3154
- Z score, HDACI_COLON_TSABUT_UP (cohort 2): 3.4480
- Z score, HIPPOCAMPUS_DEVELOPMENT_POSTNATAL (cohort 2): 10.3312
- Z score, HOFFMANN_BIVSBII_BI_TABLE2 (cohort 2): −7.7114
- Z score, HYPOPHYSECTOMY_RAT_DN (cohort 2): 3.9294
- Z score, IDX_TSA_UP_CLUSTER3 (cohort 2): −10.1593
- Z score, IRITANI_ADPROX_LYMPH (cohort 2): −3.3728
- Z score, KAMMINGA_EZH2_TARGETS (cohort 2): −7.2448
- Z score, KENNY_WNT_UP (cohort 2): −5.5586
- Z score, LAMB_CYCLIN_D3_GLOCUS (cohort 2): −4.3054
- Z score, LEE_TCELLS2_UP (cohort 2): −5.6671
- Z score, LEE_TCELLS3_UP (cohort 2): −8.0339
- Z score, LI_FETAL_VS_WT_KIDNEY_DN (cohort 2): −9.1715
- Z score, MANALO_HYPOXIA_DN (cohort 2): −6.1956
- Z score, MIDDLEAGE_DN (cohort 2): −7.7600
- Z score, MOREAUX_TACI_HI_IN_PPC_UP (cohort 2): −3.8456
- Z score, MOREAUX_TACI_HI_VS_LOW_DN (cohort 2): −3.2936
- Z score, OLDAGE_DN (cohort 2): −7.1043
- Z score, P21_P53_ANY_DN (cohort 2): −7.4300
- Z score, PEART_HISTONE_DN (cohort 2): −5.2170
- Z score, PODI_KO_UP (cohort 2): −4.3565
- Z score, PRMT5_KD_UP (cohort 2): −5.4620
- Z score, REN_E2F1_TARGETS (cohort 2): −3.5319
- Z score, SASAKI_ATL_UP (cohort 2): −5.5299
- Z score, SASAKI_TCELL_LYMPHOMA_VS_CD4_UP (cohort 2): −5.5299
- Z score, SERUM_FIBROBLAST_CELLCYCLE (cohort 2): −10.6997
- Z score, SHEPARD_BMYB_MORPHOLINO_DN (cohort 2): −4.7947
- Z score, SHEPARD_CRASH_AND_BURN_MUT_VS_WT_DN (cohort 2): −4.0540
